Experimental findings from US20090065745A1, “ANTI-DEGRADATION AGENT” (priority 2005, published 2009) are described below.

Bounds are passed on as bounds.

A short description of one series: Measurement of dynamic hydration number (relaxation time T1). The series is classed as physicochemical. The conditions noted are these: at 25° C., in water. The source says:
First, the concept of the “dynamic hydration number” used in the present invention is explained. It is considered that the initial reaction of deterioration is caused at an “interface”, i.e., any of interfaces between gas and liquid, between liquid and solid and between liquid and liquid. In the case of almost all of foods, it is considered that the initial reaction of deterioration thereof is caused at an interface between oil and water. Here, if consideration is mainly made on the case where a configuration of the food is an aqueous system, water is generally classified into two types, i.e., liberated water and combined water. It is considered that among these waters, the liberated water frequently constitutes a factor relating to the initial reaction of deterioration.
The control of the liberated water can be realized by constraining a free motion of water molecules. The “dynamic hydration number” of the compound is an index showing a degree of constraint of free motion of water when the compound is dissolved in water. […] The dynamic hydration number of the compound may be readily measured, for example, by the following method.
25.0 mg of p-hydroxybenzoic acid was dissolved in pure water, and pure water was further added the resultant solution to obtain 50 mL of a solution (blank). The blank was added to samples used in amounts of 1.008 g and 1.512 g, respectively, to prepare sample solutions 1 and 2 having total weights of 4.013 g and 3.001 g, respectively. Using a spectrophotometer “Inova 500” manufactured by Varian Corp., the relaxation time (T1) of the respective sample solutions was measured at 25° C. to determine a dynamic hydration number thereof.
Take `O=C(CO)[C@@H](O)[C@H](O)[C@H](O)CO` [Fructose]: the “Dynamic hydration number (nDHN)” value is listed as 16.5.

Maltotriose: the “Dynamic hydration number (nDHN)” value is 204.

As to Maltotriol, the “Dynamic hydration number (nDHN)” value came to 211.

With `CC(C)[C@H](N)C(=O)O` [Valine], the “Dynamic hydration number (nDHN)” value came to 21.0.

`NCCCC[C@H](N)C(=O)O` [Lysine]: the “Dynamic hydration number (nDHN)” value stood at 3.0.

With `O=C[C@H](O)[C@@H](O)[C@H](O)CO` [Xylose], the “Dynamic hydration number (nDHN)” value was 15.5.

Regarding `OC[C@H]1O[C@@](CO)(O[C@H]2O[C@H](CO)[C@@H](O)[C@H](O)[C@H]2O)[C@@H](O)[C@@H]1O` [Sucrose], the “Dynamic hydration number (nDHN)” value amounted to 15.0.

A further series is described as follows: Solubility in hexane (oil solubility). In kind it is physicochemical. The conditions noted are these: at 30° C. An excerpt:
However, the solubility in triglyceride of the compound varies depending upon constitutional fatty acids of the triglyceride. Therefore, in the present invention, the oil insolubility and oil solubility of the compound is defined by a solubility thereof in hexane.
In the case of tocopherol [Vitamin E (tocopherol)], the “Oil solubility class (solubility in hexane)” value was “Oil-soluble (oil-soluble antioxidant having a solubility in 1 L of hexane of not less than 50 g as measured at 30° C.)” and the Solubility in hexane was above 500 g/L.
